According to patent US20040110265A1, “Recovery of enzyme activity from enveloped viruses” (priority 2001, published 2004):

Assays:
[1] = system: human plasma RT; experiment: Selective destruction of endogenous RT activity in plasma, protocol I; assay type: biochemical; conditions: EDTA plasma with disrupted lymphocytes, 1 hour at room temperature
Procedure: EDTA plasma with disrupted lymphocytes from a healthy blood donor and FIV diluted in inactivated foetal calf serum (totally devoid of plasma RT activity) were incubated for 1 hour at room temperature with indicated concentration of: A) 5,5′-dithiobis-(2-nitrobensoic acid), B) thimerosal. The samples were separated according to “Protocol for determination of retroviral RT from material which contains RT blocking antibodies”. The RT activities recovered were determined with an RT assay (Cavidi HS-kit Lenti RT).

[2] = system: FIV RT; conditions: in foetal calf serum, 60 minutes at 22° C.
Procedure: (§1) Recombinant wild type HIV 1 RT (▪), Recombinant RT from a Nevirapine resistant HIV 1 mutant (Y181C) (⋄), Jaagsiekte virus (JSV) RT from a sheep lung cancer (▾), […] (FIV) RT (∘), Bovine Leukaemia virus (BLV) RT (♦) and Porcine Endogenous Retrovirus (PERV) RT (●)derived from cell culture were dilute in heat inactivated foetal calf serum. The different virus enzyme preparations and an EDTA plasma sample from a healthy blood donor (□) were incubated with indicated thimerosal concentration at room temperature (22° C.) for 60 minutes. All the samples were diluted 100 fold in an RT assay compatible buffer and the residual RT activity in each sample was then determined. Three RT assays, each adapted to the type of RT measured were used: HIV 1, JSV, and FIV RTs were measured with Cavidi® HS kit Lenti RT BLV RT with Cavidi® HS kit HTLV RT and PERV and human plasma RT with Cavidi® HS kit Mn^2+ RT.

[3] = target: Jaagsiekte virus (JSV) RT (Sheep pulmonary adenomatosis virus, UniProt P31623); conditions: in foetal calf serum, 60 minutes at 22° C.
Chain of Jaagsiekte virus (JSV) RT (P31623 866-1446 limits assumed): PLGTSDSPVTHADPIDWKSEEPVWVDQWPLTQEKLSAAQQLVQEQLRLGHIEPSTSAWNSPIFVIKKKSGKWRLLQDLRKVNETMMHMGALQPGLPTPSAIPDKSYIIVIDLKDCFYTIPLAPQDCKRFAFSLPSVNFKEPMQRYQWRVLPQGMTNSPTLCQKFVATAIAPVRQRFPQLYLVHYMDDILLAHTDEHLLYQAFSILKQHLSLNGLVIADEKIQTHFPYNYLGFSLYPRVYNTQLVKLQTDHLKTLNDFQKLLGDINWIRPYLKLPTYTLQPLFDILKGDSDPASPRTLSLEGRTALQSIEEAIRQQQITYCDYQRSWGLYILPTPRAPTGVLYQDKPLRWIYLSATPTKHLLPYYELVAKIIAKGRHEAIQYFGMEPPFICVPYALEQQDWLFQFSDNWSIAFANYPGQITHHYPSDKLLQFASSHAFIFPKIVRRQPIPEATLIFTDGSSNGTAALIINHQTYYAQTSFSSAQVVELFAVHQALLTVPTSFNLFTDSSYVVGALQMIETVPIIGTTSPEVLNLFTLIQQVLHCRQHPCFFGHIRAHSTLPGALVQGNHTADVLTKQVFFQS
Procedure: as §1

[4] = target: Recombinant wild type HIV 1 RT (Human immunodeficiency virus type 1 group M subtype B, UniProt P04585); conditions: in foetal calf serum, 60 minutes at 22° C.
Procedure: as §1

[5] = target: Recombinant RT from a Nevirapine resistant HIV 1 mutant (Y181C) (Human immunodeficiency virus type 1 group M subtype B, UniProt P04585, Y768C); conditions: in foetal calf serum, 60 minutes at 22° C.
Procedure: as §1

[6] = system: human plasma polymerase; experiment: Resurrection of plasma polymerase activity after treatment with cysteine-modifying agents; assay type: biochemical
Procedure: A set of human plasma samples (60% plasma in water) was first incubated with 3 mM of indicated cysteine-modifying substance or water (as control) at room temperature for 1 hour. Serial dilutions of five potentially reactivating substances were then added and the samples were incubated for another hour. Each sample was finally diluted 1:20 and residual RT activity was determined with Cavidi® HS kit Lenti RT. The total reduction in substance concentration between sample incubation and RT assay was 200 times. The RT activities recovered were recalculated into percent of the activity of a control consisting of plasma incubated in absence of additions during both incubation steps.

**Q.** Which “Concentration that totally eliminated the human plasma RT activity” value [1] does the source give for `C[CH2][Hg][S]c1ccccc1C(=O)[O-].[Na+]` [Thimerosal] here?
**A.** > 3 mM

**Q.** And the “Sensitivity of enzyme to thimerosal treatment” value (shortened to “Sensitivity of enzyme”) [2]?
**A.** most sensitive

**Q.** What about the “Sensitivity of enzyme” value [3] of the same compound?
**A.** totally resistant

**Q.** What about the “Sensitivity of enzyme” value [4] of the same compound?
**A.** totally resistant

**Q.** What about the “Sensitivity of enzyme” value [5] of the same compound?
**A.** most sensitive

**Q.** What about the “Conditions required to reactivate polymerase activity treated with the agent” value ([6]; 3 mM agent, then reactivating substances) of the same compound?
**A.** quite easily reactivated

**Q.** And the “Polymerase activity after second incubation with DTT (% of control)” value (from here on “Polymerase activity … with DTT (% of control)”) ([6]; 3 mM destroying agent first, 1.1 mM DTT)?
**A.** 84%

**Q.** What about the “Polymerase activity after second incubation with MSA (% of control)” value (shortened to “Polymerase activity … with MSA (% of control)”) ([6]; 3 mM destroying agent first, 1.1 mM MSA) of the same compound?
**A.** 17%

**Q.** And the “Polymerase activity after second incubation with cysteamine (% of control)” value ([6]; 3 mM destroying agent first, 1.1 mM cysteamine)?
**A.** 0%

**Q.** And the “Polymerase activity after second incubation with cysteine (% of control)” value ([6]; 3 mM destroying agent first, 1.1 mM cysteine)?
**A.** 4%

**Q.** And the “Polymerase activity after second incubation with glutathione (% of control)” value ([6]; 3 mM destroying agent first, 1.1 mM glutathione)?
**A.** 12%

**Q.** And the “Polymerase activity … with DTT (% of control)” value ([6]; 3 mM destroying agent first, 3.3 mM DTT)?
**A.** 248%

**Q.** And the “Polymerase activity … with MSA (% of control)” value ([6]; 3 mM destroying agent first, 3.3 mM MSA)?
**A.** 19%

**Q.** What about the “Polymerase activity after second incubation with cysteamine (% of control)” value ([6]; 3 mM destroying agent first, 3.3 mM cysteamine) of the same compound?
**A.** 0%

**Q.** What about the “Polymerase activity after second incubation with cysteine (% of control)” value ([6]; 3 mM destroying agent first, 3.3 mM cysteine) of the same compound?
**A.** 14%

**Q.** And the “Polymerase activity after second incubation with glutathione (% of control)” value ([6]; 3 mM destroying agent first, 3.3 mM glutathione)?
**A.** 21%

**Q.** And the “Polymerase activity … with DTT (% of control)” value ([6]; 3 mM destroying agent first, 10 mM DTT)?
**A.** 377%

**Q.** What about the “Polymerase activity … with MSA (% of control)” value ([6]; 3 mM destroying agent first, 10 mM MSA) of the same compound?
**A.** 7.3%

**Q.** And the “Polymerase activity after second incubation with cysteamine (% of control)” value ([6]; 3 mM destroying agent first, 10 mM cysteamine)?
**A.** 2%

**Q.** And the “Polymerase activity after second incubation with cysteine (% of control)” value ([6]; 3 mM destroying agent first, 10 mM cysteine)?
**A.** 37%

**Q.** What about the “Polymerase activity after second incubation with glutathione (% of control)” value ([6]; 3 mM destroying agent first, 10 mM glutathione) of the same compound?
**A.** 37%

**Q.** What about the “Polymerase activity … with DTT (% of control)” value ([6]; 3 mM destroying agent first, 30 mM DTT) of the same compound?
**A.** 448%

**Q.** And the “Polymerase activity … with MSA (% of control)” value ([6]; 3 mM destroying agent first, 30 mM MSA)?
**A.** 3.4%

**Q.** What about the “Polymerase activity after second incubation with cysteamine (% of control)” value ([6]; 3 mM destroying agent first, 30 mM cysteamine) of the same compound?
**A.** 1%

**Q.** And the “Polymerase activity after second incubation with cysteine (% of control)” value ([6]; 3 mM destroying agent first, 30 mM cysteine)?
**A.** 68%

**Q.** What about the “Polymerase activity after second incubation with glutathione (% of control)” value ([6]; 3 mM destroying agent first, 30 mM glutathione) of the same compound?
**A.** 7%

**Q.** And the “Polymerase activity after second incubation with water (% of control)” value ([6]; 3 mM destroying agent first, water in second incubation)?
**A.** 0%
